Values joined by “and” are separate entries in the source; they are usually repeats but may differ in a detail not shown here. Identical values can stand only once. After the bases stand the sugars from the 5' end (letter, count) and the backbone: PS all phosphorothioate, else s phosphorothioate and o phosphodiester by linkage. HELM strings list units from the 5' end as sugar, base in round brackets, then linkage (d deoxyribose, r ribose, m 2'-O-methyl, p phosphodiester). Methylation of C is not given here. [moe] = 2'-O-(2-methoxyethyl) (MOE); [cEt] = constrained ethyl (cEt); [sp] = phosphorothioate linkage; e = 2'-O-(2-methoxyethyl) (MOE); k = constrained ethyl (cEt); d = 2'-deoxy (DNA)
Key:
HBV = settings: ASO, HepG2, 0.07 µM
APOL1 = settings: ASO

RNA1{[moe](C)[sp].[moe](T)[sp].d(G)[sp].d(G)[sp].d(A)[sp].d(G)[sp].d(C)[sp].d(C)[sp].d(A)[sp].d(C)[sp].d(C)[sp].[moe](A)[sp].[moe](G)[sp].[moe](C)[sp].[moe](A)[sp].[moe](G)}$$$$V2.0
target mRNA inhibition (HBV): 57% and 53%

RNA1{[moe](A)[sp].[cEt](A)[sp].[cEt](C)[sp].d(T)[sp].d(G)[sp].d(G)[sp].d(A)[sp].d(G)[sp].d(C)[sp].d(C)[sp].d(A)[sp].d(C)[sp].d(C)[sp].[cEt](A)[sp].[cEt](G)[sp].[moe](C)}$$$$V2.0
target mRNA inhibition (HBV): 67% and 68%

RNA1{[moe](A)[sp].[moe](G)[sp].[moe](G)[sp].d(T)[sp].d(G)[sp].d(A)[sp].d(A)[sp].d(G)[sp].d(C)[sp].d(G)[sp].d(A)[sp].d(A)[sp].d(G)[sp].[cEt](T)[sp].[cEt](G)[sp].[cEt](C)}$$$$V2.0
target mRNA inhibition (HBV): 73% and 68%

RNA1{[moe](G)[sp].[cEt](A)[sp].[cEt](A)[sp].d(G)[sp].d(C)[sp].d(G)[sp].d(A)[sp].d(A)[sp].d(G)[sp].d(T)[sp].d(G)[sp].d(C)[sp].d(A)[sp].[cEt](C)[sp].[cEt](A)[sp].[moe](C)}$$$$V2.0
target mRNA inhibition (HBV): 75% and 78%

RNA1{[moe](G)[sp].[moe](G)[sp].d(C)[sp].d(A)[sp].d(T)[sp].d(A)[sp].d(G)[sp].d(C)[sp].d(A)[sp].d(G)[sp].d(C)[sp].[moe](A)[sp].[moe](G)[sp].[moe](G)[sp].[moe](A)[sp].[moe](T)}$$$$V2.0
target mRNA inhibition (HBV): 52% and 40%

RNA1{[moe](G)[sp].[moe](A)[sp].d(G)[sp].d(G)[sp].d(T)[sp].d(G)[sp].d(A)[sp].d(A)[sp].d(G)[sp].d(C)[sp].d(G)[sp].[moe](A)[sp].[moe](A)[sp].[moe](G)[sp].[moe](T)[sp].[moe](G)}$$$$V2.0
target mRNA inhibition (HBV): 51% and 46%

RNA1{[moe](T)[sp].[moe](C)[sp].[moe](C)[sp].d(G)[sp].d(C)[sp].d(A)[sp].d(G)[sp].d(T)[sp].d(A)[sp].d(T)[sp].d(G)[sp].d(G)[sp].d(A)[sp].[cEt](T)[sp].[cEt](C)[sp].[cEt](G)}$$$$V2.0
target mRNA inhibition (HBV): 73% and 53%

RNA1{[moe](T)[sp].[moe](G)[sp].[moe](A)[sp].[moe](A)[sp].[moe](G)[sp].[moe](C)[sp].d(G)[sp].d(A)[sp].d(A)[sp].d(G)[sp].d(T)[sp].d(G)[sp].d(C)[sp].d(A)[sp].d(C)[sp].[moe](A)[sp].[moe](C)}$$$$V2.0
target mRNA inhibition (HBV): 84% and 64%

RNA1{[moe](A)[sp].[moe](C)[sp].[moe](G)[sp].[moe](G)[sp].[moe](G)[sp].d(C)[sp].d(A)[sp].d(A)[sp].d(C)[sp].d(A)[sp].d(T)[sp].d(A)[sp].d(C)[sp].d(C)[sp].[moe](T)[sp].[moe](T)}$$$$V2.0
target mRNA inhibition (HBV): 56% and 46%

CAGTTTTGTAAGTGCA (sugars k4 d9 k3, PS)
target mRNA inhibition (APOL1; A431, 0.0625 µM): 96% | target mRNA inhibition (APOL1; A431, 0.25 µM): 98% | target mRNA inhibition (APOL1; A431, 1 µM): 99%

GTATTTCTTGATGTGG (sugars kkkddddkdkdkdddd, PS)
target mRNA inhibition (APOL1; A431, 0.0156 µM): 24% | target mRNA inhibition (APOL1; A431, 0.0625 µM): 59% | target mRNA inhibition (APOL1; A431, 0.25 µM): 82% | target mRNA inhibition (APOL1; A431, 1 µM): 86% | target mRNA inhibition (APOL1; A431, 2 µM): 92%

CATTCAGAATTTCCAC (sugars kkkddddkekeddddd, PS)
target mRNA inhibition (APOL1; A431, 2 µM): 86%

GCTAATTTTCTGACTG (sugars kekddddeekkddddd, PS)
target mRNA inhibition (APOL1; A431, 0.0156 µM): 13% | target mRNA inhibition (APOL1; A431, 0.0625 µM): 42% | target mRNA inhibition (APOL1; A431, 0.25 µM): 69% | target mRNA inhibition (APOL1; A431, 1 µM): 87% | target mRNA inhibition (APOL1; A431, 2 µM): 94%

TATCAGATGGGTACTT (sugars kkkddddkekeddddd, PS)
target mRNA inhibition (APOL1; A431, 2 µM): 37%

TCTATTAGAGGGCTAG (sugars kddddkekekeddddd, PS)
target mRNA inhibition (APOL1; A431, 2 µM): 37%

GGCAGTTTTGTAAGTG (sugars kkkddddkekekdddd, PS)
target mRNA inhibition (APOL1; A431, 2 µM): 32%

TCCGTCAATATATTCT (sugars k2 d4 e3 k2 d5, PS)
target mRNA inhibition (APOL1; A431, 0.0156 µM): 27% | target mRNA inhibition (APOL1; A431, 0.0625 µM): 59% | target mRNA inhibition (APOL1; A431, 0.25 µM): 84% | target mRNA inhibition (APOL1; A431, 1 µM): 93% | target mRNA inhibition (APOL1; A431, 2 µM): 96%

ATTCAGAATTTCCACT (sugars kkddddkekekddddd, PS)
target mRNA inhibition (APOL1; A431, 2 µM): 76%

GTCATTAGTGCTATAG (sugars k4 d9 k3, PS)
target mRNA inhibition (APOL1; A431, 0.0625 µM): 68% | target mRNA inhibition (APOL1; A431, 0.25 µM): 87% | target mRNA inhibition (APOL1; A431, 1 µM): 93%

TGTTATATTTGATCCT (sugars k3 d10 k3, PS)
target mRNA inhibition (APOL1; A431, 0.0625 µM): 67% | target mRNA inhibition (APOL1; A431, 0.25 µM): 90% | target mRNA inhibition (APOL1; A431, 1 µM): 98%

CAGATTCTGTGTGCTC (sugars k4 d9 k3, PS)
target mRNA inhibition (APOL1; A431, 0.0625 µM): 51% | target mRNA inhibition (APOL1; A431, 0.25 µM): 68% | target mRNA inhibition (APOL1; A431, 1 µM): 75%

CAGATGGGTACTTCTG (sugars kddddkekekeddddd, PS)
target mRNA inhibition (APOL1; A431, 2 µM): 23%

AGTATTGCCAGCTAAG (sugars k2 d4 e4 k2 d4, PS)
target mRNA inhibition (APOL1; A431, 2 µM): 59%

TCAGATGGGTACTTCT (sugars kkddddkdkdkddddd, PS)
target mRNA inhibition (APOL1; A431, 2 µM): 88%

TTTGTAAGTGCAACCA (sugars kkddddkekekddddd, PS)
target mRNA inhibition (APOL1; A431, 2 µM): 98%

GAAGATTGGCTCTGGC (sugars k2 d4 e3 k2 d5, PS)
target mRNA inhibition (APOL1; A431, 2 µM): 81%

TCTATTAGAGGGCTAG (sugars kdddddkekekddddd, PS)
target mRNA inhibition (APOL1; A431, 2 µM): 42%

CGCAATGCTGACTTGG (sugars k2 d4 e3 k2 d5, PS)
target mRNA inhibition (APOL1; A431, 2 µM): 88%

TGTAAGTGCAACCAAT (sugars kkddddkekekkdddd, PS)
target mRNA inhibition (APOL1; A431, 2 µM): 43%

ATCAGATGGGTACTTC (sugars kkkddddkekekdddd, PS)
target mRNA inhibition (APOL1; A431, 2 µM): 54%

ACTCAAGTCAGTACAG (sugars k4 d9 k3, PS)
target mRNA inhibition (APOL1; A431, 0.0625 µM): 27% | target mRNA inhibition (APOL1; A431, 0.25 µM): 58% | target mRNA inhibition (APOL1; A431, 1 µM): 77%

CTGTTCTAACTCTTGG (sugars k4 d9 k3, PS)
target mRNA inhibition (APOL1; A431, 0.0625 µM): 61% | target mRNA inhibition (APOL1; A431, 0.25 µM): 79% | target mRNA inhibition (APOL1; A431, 1 µM): 87%

TCACATACTCTCTGGG (sugars k4 d9 k3, PS)
target mRNA inhibition (APOL1; A431, 0.0625 µM): 24% | target mRNA inhibition (APOL1; A431, 0.25 µM): 62% | target mRNA inhibition (APOL1; A431, 1 µM): 77%

— the OligoGym collection
